Test results from ChEMBL document CHEMBL5223099, “Covalent cannabinoid receptor ligands - structural insight and selectivity challenges” (RSC Med Chem, 2022).

Key:
Cannabinoid receptor 1 [1] = molecular target: T1, Cannabinoid receptor 1 (Homo sapiens, UniProt P21554); assay: Displacement of [3H]- CP55940 from human CB1R expressed in HEK293F cells assessed as inhibition constant incubated for 1 hr by scintillation counter analysis; type: cell-based; details: filed as antagonist
Cannabinoid receptor 2 [2] = molecular target: T2, Cannabinoid receptor 2 (Homo sapiens, UniProt P34972); assay: Binding affinity to wild type human CB2R expressed in HEK293 cells assessed as inhibition constant; type: cell-based
Cannabinoid receptor 1 [3] = molecular target: T1, Cannabinoid receptor 1; assay: Binding affinity to CB1R (unknown origin) assessed as inhibition constant; details: filed as antagonist
Cannabinoid receptor 2 [4] = molecular target: T2, Cannabinoid receptor 2; assay: Antagonist activity at human CB2R assessed as beta arrestin-2 recruitment by measuring inhibition constant
Cannabinoid receptor 1 [5] = molecular target: T1, Cannabinoid receptor 1; assay: Antagonist activity at human CB1R assessed as beta arrestin-2 recruitment by measuring inhibition constant
Cannabinoid receptor 1 [6] = molecular target: Cannabinoid receptor 1 (Rattus norvegicus, UniProt P20272); assay: Antagonist activity at rat CB1R expressed in CHO cells assessed as inhibition of forskolin stimulated cyclic AMP production; type: cell-based
Chain of Cannabinoid receptor 1 (Rattus norvegicus, UniProt P20272) (P20272 whole entry): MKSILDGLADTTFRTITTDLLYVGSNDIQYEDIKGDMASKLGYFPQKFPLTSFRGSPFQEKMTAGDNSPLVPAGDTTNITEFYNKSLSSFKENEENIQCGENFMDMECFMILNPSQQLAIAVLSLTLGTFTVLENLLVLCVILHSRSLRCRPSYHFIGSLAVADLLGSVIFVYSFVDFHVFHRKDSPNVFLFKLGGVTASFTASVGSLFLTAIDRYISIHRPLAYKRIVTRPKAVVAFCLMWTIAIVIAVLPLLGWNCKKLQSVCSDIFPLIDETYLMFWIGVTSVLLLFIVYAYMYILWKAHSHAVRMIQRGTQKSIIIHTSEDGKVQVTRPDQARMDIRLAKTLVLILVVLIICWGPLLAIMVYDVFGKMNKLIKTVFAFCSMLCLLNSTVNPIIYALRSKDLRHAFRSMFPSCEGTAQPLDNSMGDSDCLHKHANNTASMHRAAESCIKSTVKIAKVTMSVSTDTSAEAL

T1 sequence (P21554 whole entry): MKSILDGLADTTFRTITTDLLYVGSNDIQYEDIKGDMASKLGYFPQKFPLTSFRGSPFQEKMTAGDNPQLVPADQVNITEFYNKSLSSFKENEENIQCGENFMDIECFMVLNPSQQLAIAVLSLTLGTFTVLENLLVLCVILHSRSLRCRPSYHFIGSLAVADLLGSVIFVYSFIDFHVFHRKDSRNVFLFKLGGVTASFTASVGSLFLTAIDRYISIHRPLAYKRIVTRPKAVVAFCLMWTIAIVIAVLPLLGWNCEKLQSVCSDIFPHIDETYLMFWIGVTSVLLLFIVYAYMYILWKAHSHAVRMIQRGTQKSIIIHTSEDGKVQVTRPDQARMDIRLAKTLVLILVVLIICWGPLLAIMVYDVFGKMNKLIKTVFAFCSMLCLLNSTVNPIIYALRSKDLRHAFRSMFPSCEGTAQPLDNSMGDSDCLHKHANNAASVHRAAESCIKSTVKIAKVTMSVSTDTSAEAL
T2 sequence (P34972 whole entry): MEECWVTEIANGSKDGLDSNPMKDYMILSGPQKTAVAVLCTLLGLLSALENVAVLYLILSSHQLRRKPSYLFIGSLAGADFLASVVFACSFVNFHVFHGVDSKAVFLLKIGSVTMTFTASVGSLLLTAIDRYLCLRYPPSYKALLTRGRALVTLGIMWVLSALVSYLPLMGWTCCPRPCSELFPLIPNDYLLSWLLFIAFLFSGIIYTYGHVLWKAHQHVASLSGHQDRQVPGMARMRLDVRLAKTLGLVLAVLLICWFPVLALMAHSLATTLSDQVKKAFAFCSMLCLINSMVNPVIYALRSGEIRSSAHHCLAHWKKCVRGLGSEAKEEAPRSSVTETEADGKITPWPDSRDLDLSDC

Q: With `Cc1c(C(=O)NN2CCCCC2)nn(-c2ccc(Cl)cc2Cl)c1-c1ccc(C#CCCO[N+](=O)[O-])cc1` as the compound, how does the K (Cannabinoid receptor 1 [1]) read?
A: Its K is 5.1 nM.

Q: How did the Ki (Cannabinoid receptor 2 [2]) turn out when `CCCCCn1nc(C(=O)NC23CC4CC(CC(C4)C2)C3)c(C)c1-c1ccccc1` was run?
A: Its Ki is 0.63 nM.

Q: Which K (Cannabinoid receptor 1 [3]) does the source give for `Cc1c(C(=O)NC23CC4CC(CC(C4)C2)C3)nn(CCCCSC#N)c1-c1ccccc1` here?
A: Its K is 5.76 nM.

Q: Which results are given for `Cc1c(C(=O)NC23CC4CC(CC(C4)C2)C3)nn(CCCCCO)c1-c1ccccc1`?
A: Ki (Cannabinoid receptor 2 [4]): 0.075 nM; Ki (Cannabinoid receptor 1 [5]): 13 nM

Q: For `CCCCCCC(C)(C)c1cc(OC)c([C@H]2C=C(CO)[C@H]3C[C@@H]2C3(C)C)c(OC)c1`, which Ki (Cannabinoid receptor 1 [6]) is on record?
A: The Ki was over 10000 nM.
